Earlier results in patent publication US20190083428A1, “SALT BALANCED VAGINAL PRODUCT AND METHOD” (Good Clean Love, Inc., priority 2014, published 2019).

Tests used:
[1] = hyperosmolal concentrations
HSV-2 = conditions: after a single exposure

Question: Which toxicity to lactobacilli (lactobacilli) does the source give for nonoxynol-9 [Example N9] here?
Answer: toxic

Question: For `OCC(O)CO` [glycerol], which toxicity [1] is on record?
Answer: obvious toxicity

Question: For `CC(O)CO` (stereo not shown) [propylene glycol], which toxicity [1] is on record?
Answer: obvious toxicity

Question: And the “susceptibility to HSV-2” value (HSV-2)?
Answer: markedly increased susceptibility
